Source: PubChem BioAssay AID248 (DTP/NCI, 2004)
Where “and” joins values, the source holds several entries; their conditions need not be identical. Identical values can stand only once. Inconclusive results and toxic doses are left out. Rule as the data show it: active = T/C of 150% or more; inactive = T/C below 125%.

System: L1210 leukemia ip in BDF1 mice, survival T/C
Test: NCI In Vivo Anticancer Drug Screen. Data for tumor model L1210 Leukemia (intraperitoneal) in B6D2F1 (BDF1) mice
Settings: endpoint: mean survival time, higher = longer survival
Procedure, shortened: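 Ratio derived from survival: compound-dosed mice over vehicle-dosed mice, all bearing a transplantable tumor.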

[1] = dose: 100.0 mg/kg/injection, schedule: Q04DX003 (ip), vehicle: saline with Tween-80
[2] = dose: 200.0 mg/kg/injection, schedule: Q04DX003 (ip), vehicle: saline with Tween-80
[3] = dose: 400.0 mg/kg/injection, schedule: Q04DX003 (ip), vehicle: saline with Tween-80
[4] = dose: 100.0 mg/kg/injection, schedule: Q04DX003 (ip), vehicle: saline
[5] = dose: 200.0 mg/kg/injection, schedule: Q04DX003 (ip), vehicle: saline
[6] = dose: 100.0 mg/kg/injection, schedule: Q01DX001 (ip), vehicle: saline
[7] = dose: 200.0 mg/kg/injection, schedule: Q01DX001 (ip), vehicle: saline
[8] = dose: 400.0 mg/kg/injection, schedule: Q01DX001 (ip), vehicle: saline
[9] = dose: 50.0 mg/kg/injection, schedule: Q01DX009 (ip), vehicle: saline with Tween-80
[10] = dose: 100.0 mg/kg/injection, schedule: Q04DX002 (ip), vehicle: saline with Tween-80
[11] = dose: 200.0 mg/kg/injection, schedule: Q04DX002 (ip), vehicle: saline with Tween-80
[12] = dose: 400.0 mg/kg/injection, schedule: Q04DX002 (ip), vehicle: saline with Tween-80
[13] = dose: 12.5 mg/kg/injection, schedule: Q04DX003 (ip), vehicle: saline
[14] = dose: 25.0 mg/kg/injection, schedule: Q04DX003 (ip), vehicle: saline
[15] = dose: 200.0 mg/kg/injection, schedule: Q01DX009 (ip), vehicle: saline

Measured: T/C

CCC(CC)NNC(CC)CC
inactive: dose: 75.0 mg/kg/injection, schedule: Q01DX001 (ip), vehicle: other 105 % of control | dose: 75.0 mg/kg/injection, schedule: Q01DX001 (ip), vehicle: saline 98 % of control | dose: 150.0 mg/kg/injection, schedule: Q01DX001 (ip), vehicle: other 98 % of control | dose: 150.0 mg/kg/injection, schedule: Q01DX001 (ip), vehicle: saline 96 % of control | dose: 300.0 mg/kg/injection, schedule: Q01DX001 (ip), vehicle: other 118 % of control

Cc1ccc(S(=O)(=O)N(C)c2ccc(C#N)c3ccccc23)cc1
inactive: [1] 97 % of control | [2] 89 % of control | [3] 90 % of control

OCC(O)c1ccccn1 (configuration not stated)
inactive: [4] 107 % of control | [5] 94 % of control | dose: 400.0 mg/kg/injection, schedule: Q04DX003 (ip), vehicle: saline 94 % of control

NOCc1csc(N)n1
inactive: [6] 101 % of control | [7] 95 % of control | [8] 104 % of control

CN(C)c1ccc(C=C2/C(=N\O)c3ccccc3/C2=N/O)cc1
inactive: dose: 100.0 mg/kg/injection, schedule: Q01DX009 (ip), vehicle: Klucel (hydroxypropylcellulose) (HPC) 98 % of control | dose: 200.0 mg/kg/injection, schedule: Q01DX009 (ip), vehicle: Klucel (hydroxypropylcellulose) (HPC) 96 % of control | dose: 400.0 mg/kg/injection, schedule: Q01DX009 (ip), vehicle: Klucel (hydroxypropylcellulose) (HPC) 94 % of control

Nc1nc(N)c(N=Nc2ccc(S(=O)(=O)Nc3ccccn3)cc2)c(=O)[nH]1
inactive: [6] 94 % of control | [7] 94 % of control | [8] 94 % of control

CCC(=O)c1ccc2c(c1)N(CCCN(C)C)c1ccccc1S2
inactive: dose: 6.25 mg/kg/injection, schedule: Q01DX009 (ip), vehicle: saline with Tween-80 98 % of control | dose: 12.5 mg/kg/injection, schedule: Q01DX009 (ip), vehicle: saline with Tween-80 96 % of control | dose: 25.0 mg/kg/injection, schedule: Q01DX009 (ip), vehicle: saline with Tween-80 115 % of control | [9] 107 % of control

N=C(N)COc1ccccc1
inactive: dose: 100.0 mg/kg/injection, schedule: Q01DX001 (ip), vehicle: saline sonified 101 % of control | dose: 200.0 mg/kg/injection, schedule: Q01DX001 (ip), vehicle: saline sonified 97 % of control | dose: 400.0 mg/kg/injection, schedule: Q01DX001 (ip), vehicle: saline sonified 95 % of control

CCCCCC(CC)C(CC)CO (configuration not stated)
inactive: dose: 15.0 mg/kg/injection, schedule: Q01DX001 (ip), vehicle: carboxymethylcellulose (CMC) 95 % of control | dose: 30.0 mg/kg/injection, schedule: Q01DX001 (ip), vehicle: carboxymethylcellulose (CMC) 96 % of control | dose: 60.0 mg/kg/injection, schedule: Q01DX001 (ip), vehicle: carboxymethylcellulose (CMC) 96 % of control

CC1CCC(C(C)C)C(NCc2cc(Cl)cc(Cl)c2O)C1 (configuration not stated)
inactive: dose: 100.0 mg/kg/injection, schedule: Q04DX003 (ip), vehicle: Klucel (hydroxypropylcellulose) (HPC) 104 % of control | dose: 200.0 mg/kg/injection, schedule: Q04DX003 (ip), vehicle: Klucel (hydroxypropylcellulose) (HPC) 101 % of control | dose: 400.0 mg/kg/injection, schedule: Q04DX003 (ip), vehicle: Klucel (hydroxypropylcellulose) (HPC) 97 % of control

COc1ccc(/C=C(C)/C=N/NC(=O)c2ccncc2)cc1OC
inactive: [1] 98 % of control | [2] 97 % of control | [3] 103 % of control

CN(C)C(C(=O)O)c1ccccc1 (configuration not stated)
inactive: [10] 101 % of control | [11] 97 % of control | [12] 97 % of control

O=C(O)c1c[nH]n2c(=S)ncnc12
inactive: [9] 97 % of control | dose: 100.0 mg/kg/injection, schedule: Q01DX009 (ip), vehicle: saline with Tween-80 96 % of control and 103 % of control | [1] 96 % of control | dose: 200.0 mg/kg/injection, schedule: Q01DX009 (ip), vehicle: saline with Tween-80 102 % of control and 103 % of control | [2] 94 % of control | dose: 400.0 mg/kg/injection, schedule: Q01DX009 (ip), vehicle: saline with Tween-80 101 % of control

COc1ccccc1NC1=C(NC(=O)Cc2ccccc2)C(=O)c2ccccc2C1=O
inactive: [1] 98 % of control | [2] 96 % of control | [3] 94 % of control

C=CCN(C(=O)OCC)P(=O)(OCC)OCC
inactive: dose: 12.5 mg/kg/injection, schedule: Q01DX009 (ip), vehicle: saline 102 % of control | [13] 106 % of control | dose: 25.0 mg/kg/injection, schedule: Q01DX009 (ip), vehicle: saline 112 % of control | [14] 106 % of control | dose: 50.0 mg/kg/injection, schedule: Q01DX009 (ip), vehicle: saline 112 % of control | dose: 50.0 mg/kg/injection, schedule: Q04DX003 (ip), vehicle: saline 105 % of control | [4] 112 % of control | [15] 112 % of control | [5] 98 % of control

O=C(/C(=N/N=C\c1ccc([N+](=O)[O-])cc1)c1ccccc1)c1ccccc1
inactive: [1] 96 % of control | [2] 96 % of control | [3] 94 % of control

CCC1NC(C(=O)O)CS1 (configuration not stated)
inactive: [6] 96 % of control | [7] 100 % of control | [8] 89 % of control

C/C=C/C(=O)OCCC[N+](C)(C)C
inactive: dose: 0.78 mg/kg/injection, schedule: Q01DX009 (ip), vehicle: saline 95 % of control | dose: 1.56 mg/kg/injection, schedule: Q01DX009 (ip), vehicle: saline 97 % of control | dose: 3.12 mg/kg/injection, schedule: Q01DX009 (ip), vehicle: saline 100 % of control | dose: 6.25 mg/kg/injection, schedule: Q04DX003 (ip), vehicle: saline 111 % of control | [13] 88 % of control | [14] 103 % of control

CN(N=O)C(=O)NCCNc1ncnc2nc[nH]c12
inactive: dose: 43.0 mg/kg/injection, schedule: Q01DX Z (ip), vehicle: carboxymethylcellulose (CMC) 86 % of control | dose: 87.0 mg/kg/injection, schedule: Q01DX Z (ip), vehicle: carboxymethylcellulose (CMC) 93 % of control | dose: 175.0 mg/kg/injection, schedule: Q01DX Z (ip), vehicle: carboxymethylcellulose (CMC) 94 % of control | dose: 350.0 mg/kg/injection, schedule: Q01DX Z (ip), vehicle: carboxymethylcellulose (CMC) 114 % of control

CC(C)(C)CC(C)(C)c1ccc(OCCOc2ccc(S(=O)(=O)O)cc2[N+](=O)[O-])cc1
inactive: dose: 100.0 mg/kg/injection, schedule: Q01DX009 (ip), vehicle: saline 105 % of control | [15] 105 % of control | dose: 400.0 mg/kg/injection, schedule: Q01DX009 (ip), vehicle: saline 100 % of control

NNC(=O)c1ccc(I)cc1
inactive: [10] 118 % of control | [11] 118 % of control | [12] 107 % of control

COC(=O)C(C(=O)OC)c1c(N)n(C)c(=O)n(C)c1=O
inactive: dose: 100.0 mg/kg/injection, schedule: Q01DX001 (ip), vehicle: Klucel (hydroxypropylcellulose) (HPC) 93 % of control | dose: 200.0 mg/kg/injection, schedule: Q01DX001 (ip), vehicle: Klucel (hydroxypropylcellulose) (HPC) 100 % of control | dose: 400.0 mg/kg/injection, schedule: Q01DX001 (ip), vehicle: Klucel (hydroxypropylcellulose) (HPC) 100 % of control
